Measured values reported in ChEMBL document CHEMBL1806354 (J Med Chem, 2011).
The source made the active and inactive calls. The rule behind the calls is not given here.

Columns and labels:
[1] = target: T1, Alpha-1A adrenergic receptor (Homo sapiens, UniProt P35348); assay: Antagonist activity at adrenergic alpha1A receptor expressed in CHO cells assessed as inhibition of adrenaline-induced intracellular calcium level after 3 to 5 mins by Fluo-4/AM assay; type: functional, cell-based
T1 sequence (P35348 whole entry): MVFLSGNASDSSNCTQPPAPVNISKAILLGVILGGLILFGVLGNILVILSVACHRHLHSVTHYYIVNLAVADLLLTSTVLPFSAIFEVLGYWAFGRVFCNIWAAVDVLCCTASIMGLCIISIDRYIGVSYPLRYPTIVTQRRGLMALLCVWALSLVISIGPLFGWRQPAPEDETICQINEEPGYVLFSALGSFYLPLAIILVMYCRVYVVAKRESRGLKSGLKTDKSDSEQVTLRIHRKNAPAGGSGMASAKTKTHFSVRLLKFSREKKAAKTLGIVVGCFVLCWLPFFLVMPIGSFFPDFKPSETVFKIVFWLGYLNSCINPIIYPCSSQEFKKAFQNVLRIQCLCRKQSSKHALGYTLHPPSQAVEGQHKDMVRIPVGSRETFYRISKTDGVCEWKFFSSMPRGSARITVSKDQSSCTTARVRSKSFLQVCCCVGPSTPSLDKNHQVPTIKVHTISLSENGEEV

D(2) dopamine receptor [2] = target: T2, D(2) dopamine receptor (Homo sapiens, UniProt P14416); assay: Displacement of [3H]spiperone from dopamine D2 receptor expressed in HEK293 cells after 50 mins by beta liquid scintillation counter; type: cell-based
Rattus norvegicus [3] = assay: Agonist activity at 5HT1A receptor in lesioned striatum of rat L-DOPA-induced dyskinesia model assessed as stimulation of 8-OH-DPAT-induced [35S]GTPgammaS binding at 1.5 mg/kg administered qd for 21 days by liquid scintillation counting; type: functional, organism-based; set-up: dose 1.5 mg/kg
D(2) dopamine receptor [4] = target: T2, D(2) dopamine receptor; assay: Agonist activity at dopamine D2 receptor expressed in HEK293 cells assessed as stimulation of [35S]GTPgammaS binding after 30 mins; type: functional, cell-based
[5] = target: T3, 5-hydroxytryptamine receptor 1A (Rattus norvegicus) (UniProt P19327); assay: Decrease of 5HT1A receptor-mediated excitatory postsynaptic current amplitude in Sprague-Dawley rat median prefrontal cortex at 10 uM by whole-cell voltage clamp assay; type: tissue-based; set-up: scale not given: the % may be the effect or the level left
T3 sequence (whole entry): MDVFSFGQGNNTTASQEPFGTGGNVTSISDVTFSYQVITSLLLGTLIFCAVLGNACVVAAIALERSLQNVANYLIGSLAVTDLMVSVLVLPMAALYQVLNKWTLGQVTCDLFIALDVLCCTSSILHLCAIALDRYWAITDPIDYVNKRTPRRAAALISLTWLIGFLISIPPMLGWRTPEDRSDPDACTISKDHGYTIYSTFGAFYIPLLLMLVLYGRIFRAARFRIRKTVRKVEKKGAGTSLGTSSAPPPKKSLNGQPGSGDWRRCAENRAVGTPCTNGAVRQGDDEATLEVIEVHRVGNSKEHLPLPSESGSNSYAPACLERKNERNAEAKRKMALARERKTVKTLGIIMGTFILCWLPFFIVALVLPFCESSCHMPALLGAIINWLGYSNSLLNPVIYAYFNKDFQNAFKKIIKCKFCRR

Rattus norvegicus [6] = assay: Antiparkinsonian effect in 21 days L-DOPA treated Parkinson's disease rat model assessed as reduction in L-DOPA-induced dyskinesia at 0.5 to 1.5 mg/kg, ip administered 15 mins before L-DOPA challenge on day 23; type: functional, organism-based
Rattus norvegicus [7] = assay: Toxicity in Parkinson's disease rat model of assessed as induction of dyskinesia at 0.5 to 1.5 mg/kg, ip qd for 21 days; type: organism-based; set-up: dose 0.5-1.5 mg/kg, route intraperitoneal; conditions: in vivo, 504 h
D(1A) dopamine receptor = D(1A) dopamine receptor (Homo sapiens, UniProt P21728); assay: Displacement of [3H]SCH23390 from dopamine D1 receptor expressed in HEK293 cells at 10 uM after 50 mins by beta liquid scintillation counter; type: cell-based
Rattus norvegicus [8] = assay: Antiparkinsonian effect in Parkinson's disease rat model of assessed as reduction in L-DOPA-induced dyskinesia at 0.5 to 1.5 mg/kg, ip qd for 21 days treated 15 mins before L-DOPA challenge measured on day 14, 17 and 23; type: functional, organism-based
Rattus norvegicus [9] = assay: Antiparkinsonian effect in Parkinson's disease rat model assessed as effect on contralateral rotations measured per 5 mins at 0.5 to 1.5 mg/kg, ip qd for 21 days; type: functional, organism-based
Rattus norvegicus [10] = assay: Antiparkinsonian effect in 6-hydroxydopamine lesioned Sprague-Dawley rat Parkinson's disease model assessed as induction of FosB expression in striatum at 1.5 mg/kg administered qd for 21 days by Western blot analysis; type: functional, organism-based; set-up: dose 1.5 mg/kg

T2 sequence (P14416 whole entry): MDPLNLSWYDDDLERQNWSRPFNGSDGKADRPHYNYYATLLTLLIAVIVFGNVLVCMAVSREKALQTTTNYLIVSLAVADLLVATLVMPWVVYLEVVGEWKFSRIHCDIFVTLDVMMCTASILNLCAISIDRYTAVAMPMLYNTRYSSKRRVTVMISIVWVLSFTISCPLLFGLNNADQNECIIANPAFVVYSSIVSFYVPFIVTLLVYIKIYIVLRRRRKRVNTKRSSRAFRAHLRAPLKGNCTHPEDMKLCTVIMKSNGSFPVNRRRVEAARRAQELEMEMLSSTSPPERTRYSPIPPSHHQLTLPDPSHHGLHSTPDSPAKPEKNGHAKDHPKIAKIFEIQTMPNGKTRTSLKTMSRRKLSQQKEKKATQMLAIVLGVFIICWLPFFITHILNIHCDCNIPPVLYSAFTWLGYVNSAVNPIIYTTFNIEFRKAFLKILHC
Chain of D(1A) dopamine receptor (P21728 whole entry): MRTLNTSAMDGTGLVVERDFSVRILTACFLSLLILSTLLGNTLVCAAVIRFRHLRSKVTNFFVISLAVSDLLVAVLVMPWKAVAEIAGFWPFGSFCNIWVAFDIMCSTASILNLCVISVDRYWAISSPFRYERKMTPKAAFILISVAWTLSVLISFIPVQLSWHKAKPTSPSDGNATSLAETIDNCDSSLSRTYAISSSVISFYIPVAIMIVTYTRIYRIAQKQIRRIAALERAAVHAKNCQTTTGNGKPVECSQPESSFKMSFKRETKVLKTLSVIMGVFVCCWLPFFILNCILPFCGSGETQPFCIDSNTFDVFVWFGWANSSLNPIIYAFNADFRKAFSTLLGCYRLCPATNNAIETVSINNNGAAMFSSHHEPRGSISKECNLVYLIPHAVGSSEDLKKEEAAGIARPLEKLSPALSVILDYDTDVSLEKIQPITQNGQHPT

CCCN1CCc2cccc3c2[C@H]1Cc1cccc(OC(=O)CCCCC2CCSS2)c1-3 (stereo partly specified)
IC50 [1]: > 10000 nM | Ki (D(2) dopamine receptor [2]): 174 nM | Activity (Rattus norvegicus [3]): Active | EC50 (D(2) dopamine receptor [4]): 320 nM | Activity [5]: 63.8% | Activity (Rattus norvegicus [6]): inactive | Activity (Rattus norvegicus [7]): Non-toxic | inhibition (D(1A) dopamine receptor): 55.7% | Activity (Rattus norvegicus [8]): Active | Activity (Rattus norvegicus [9]): Active | Activity (Rattus norvegicus [10]): inactive
